Experimental data as given in patent US11452731B2, “Method of treating and preventing loss of cognition” (ENDORECHERCHE, INC., priority 2009, dated 2022).
Marks after values point to notes of the source that are not given here.

Assay: Endometrial epithelium thickness in OVX nude mice after 161 days of antiestrogen (Example 8)
Type: in vivo
Summary of the method: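 OVX nude mice received antiestrogen with or without an estrone implant; controls were OVX and OVX+Estrone. Antiestrogens were given as suspensions for 161 days. Uteri were then collected and H&E sections analysed by image analysis for mean endometrial epithelial cell height.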

With `CC1=C(c2ccc(O)cc2)[C@H](c2ccc(OCCN3CCCCC3)cc2)Oc2cc(O)ccc21.Cl` [EM-652.HCl, (S)-(+)-7-hydroxy-3-(4′-hydroxyphenyl)-4-methyl-2-(4″-(2′″-piperidinoethoxy)phenyl)-2H-1-benzopyran hydrochloride] the “inhibition of the stimulatory effect of estrone on epithelial height” value (50 μg daily oral, estrone stimulation) was 70%, the “height of uterine epithelial cells, % of the OVX control group value” (200 μg daily, absence of estrone) was 114% and the “ENDOMETRIAL EPITHELIUM THICKNESS (μm) ± SEM” value (OVX + E1, antiestrogen 50 μg daily) was 25.06^b ± 0.07 μm. For the same compound, the “ENDOMETRIAL EPITHELIUM THICKNESS (μm) ± SEM” value (OVX without E1, antiestrogen 200 μg daily) was 20.79 ± 0.10 μm.
